Experimental data reported in patent US20130172324A1, “METHOD FOR TREATING CARDIOVASCULAR DISEASES USING RHO KINASE INHIBITOR COMPOUNDS” (priority 2008, published 2013).
pIC50: −log10 of the molar value. Read-outs that look alike come from different tables or passages of the source.

What was measured:
[1] = tested on: rat trachea rings; assay: Tracheal relaxation assay (carbachol precontracted rings); details: for Percentage of carbachol-induced contraction at 1 μM compound, Avg % / Percentage of carbachol-induced contraction at 10 μM compound, Avg %: 1 μM carbachol; for pIC50: read-out: IC50 Avg; for Trachael Ring Contraction, %: average percentage of carbachol-induced rat tracheal ring contraction at 1 μM of test compound;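 for all read-outs here: isometric tension of rat tracheal rings in Krebs buffer with 1 µM indomethacin, compounds added cumulatively at 30 min intervals, basal tension subtracted, fit to Hill equation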
Method: The effects of compounds to induce relaxation of pre-contracted rat trachealis were determined. […] Trachea were excised, cleaned of connective tissue and cut into cylindrical segments of 2-3 mm length. Two stainless steel wires were guided through the lumen of the tracheal ring. One wire was fixed in the tissue bath and the other was connected to a force transducer via surgical silk. […] Indomethacin (1 μM), a cyclooxygenase inhibitor, was added to the Krebs buffer and was present throughout the experiments. Contractile tensions were measured using an isometric force transducer (Grass Instruments) and signals were analyzed using specialized software (Chart v5.5, ADInstruments). The preparations were allowed to equilibrate at a resting tension of 0.3 to 0.5 gm prior to two challenges with 60 mM KCl to assess tissue viability. After washing, tissues were treated with 1 μM carbachol for 10 to 15 minutes to induce a contractile response. Test Compounds were added cumulatively to the bath every 30 minutes and reductions in tension were recorded. Basal tension was subtracted from all values and data were reported as a percentage of the maximal carbachol-induced contraction. Data were fit to the Hill equation using GraphPad Prism v5 software.

[2] = Rat oral pharmacokinetics (plasma); type: in vivo
Method: Plasma (EDTA K2 anticoagulant) was collected from male, cannulated, CD Sprague Dawley rats to determine the pharmacokinetics of formulations containing compound inhibitors of Rho kinase. Each animal was dosed orally with a 4 ml/kg solution or suspension of each test compound in 10 mM acetate buffered saline, pH 4.5 at a final concentration range of 20-30 μmol/kg. Blood was collected at 0.25, 0.5, 1, 2, 4, 6, 8, and 24 hours. Plasma samples were assayed for the concentration of the test compound using an on-line, solid phase extraction LC/MS/MS analysis system.
Samples were analyzed on a QSTAR Elite, hybrid quadrupole time-of-flight mass spectrometer (Applied Biosystems, Framingham, Mass.) coupled with a Symbiosis Pharma integrated, on-line SPE-HPLC system (Spark Holland Inc., Plainsboro, N.J.). Analyst QS 2.0 software was used for instrument control, data acquisition and processing. […] Mobile Phase A consisted of 0.1% ammonium hydroxide in water and Mobile Phase B consisted of 0.1% formic acid in acetonitrile. Pharmacokinetic analyses were performed using WinNonlin software version 5.2 (Pharsight Corporation, Mountain View, Calif.).
As determined from the plasma concentration versus time curves, the time to peak and peak exposure are represented by the values Tmax and Cmax, respectively. The AUC values (nM*hr) shown were calculated as the areas under the plasma concentration versus time curves from time zero through the time of the last observable value and represent the total exposure of the compound over the course of the study. Half-life values or the amount of time required for the plasma levels of the compound to decline to half the initial value are represented as t1/2.

[3] = tested on: ova-sensitized, ova-challenged mice; assay: Bronchodilator assay in ovalbumin-sensitized mice (Penh, methacholine); type: in vivo, mouse; details: for log10AUC (penh): bronchodilator dosing paradigm
Method: Male BALB/c mice were ordered from Charles River Laboratories (Raleigh, N.C.). The animals were approximately 19 to 21 grams at time of receipt. Upon arrival, the animals were randomized into groups of five males per cage and assigned to a dosing group. Animals were quarantined for 7 days under test conditions. They were observed daily for general health status and ability to adapt to the water bottles.
Animals were sensitized on day 0 and 14 of study by an intraperitoneal injection with 20 μg of ovalbumin (ova) and 2.0 mg aluminum hydroxide (alum) which initiates the development of a specific T-helper (Th) cells type 2 resulting in asthmatic animals. One group of animals received an injection of saline to use as non-asthmatic control animals. All animals were challenged with aerosolized 1% ova once daily for 25 minutes on days 28, 29, and 30 (Zosky, et al. Respiratory Research. 2004; 5:15). Aerosol challenge consists of using an Aerogen Aeroneb nebulizer and controller with a particle size of 4-6 μm mass median aerodynamic diameter (MMAD) with a distribution of 400 μl per minute. This aerosol challenge is necessary to target the Th2-driven allergic inflammation in the lower airways.
The test compounds and the control vehicle were administered to animals on the day of airway hyperreactivity evaluation 30 minutes to 1 hour before the evaluation to determine the bronchodilator effects of the compounds according to the bronchodilator dosing paradigm (FIG. 8). Compounds were administered p.o. (orally), i.p. (intraperitoneally) at 15 μMol/kg unless otherwise noted (Table 6). Alternatively, compounds were administered i.t. (intratracheally) at varying doses as shown (FIG. 9). On day 32 of the experiment, airway hyperreactivity was evaluated by placing conscious, unrestrained animals in a whole body plethysmometer (Buxco Wilmington, N.C.) and exposing them to escalating doses of nebulized methacholine, a known bronchial constrictor which acts through the muscarinic receptors of the lungs, (doses: 0.325-50 mg/ml). Exposure to the methacholine doses consisted of a 3 minute period during which a nebulizer was aerosolizing the methacholine and an additional 3 minute period following the cessation of nebulization. Over this 6 minute period, the plethysmometer monitors and generates numerical values for all parameters of the breath pattern. Enhanced pause (Penh), a unitless index of airway hyperreactivity, is derived from the expiratory side of the respiratory waveform measured via the plethysmograph and is used as an indirect measure of airway resistance and hyperreactivity. […] Following the methacholine dose response, all animals were anesthetized, bled and euthanized.
Within each experiment, a mouse was given a single compound and exposed to increasing doses of methacholine [0 (baseline), 0.375, 0.75, 1.5, 3, 6, 12, 25, 50 mg/ml]. The Penh value at each of the dose levels of methacholine represents the 6-minute average response. Change from baseline (CFB) in Penh was calculated at each methacholine dose and the area under the curve (AUC) for these CFB values was calculated using the trapezoidal rule. This same approach was applied for each mouse across multiple experiments.
For statistical analyses, a linear mixed-effects model where the response was the log 10 transformed value of AUC described above was used. Data from equal experimental conditions across experiments performed on different days were pooled for statistical analysis and data reporting. The various compounds were compared adjusting for the log 10-transformed baseline value of Penh and the chamber (1 of 10) of the plethysmometer each mouse was contained in during an experiment. A random intercept for each experiment was assumed to account for possible similarities of the results obtained from a given experiment (i.e., as a “blocking effect”). […] Computations were performed using PROC MIXED (SAS Version 9.1). […]

[4] = tested on: cytokine secretion from LPS-stimulated human monocytes; assay: Human monocyte cytokine secretion assay (LPS); type: cell-based
Method: Peripheral blood from healthy human volunteers was collected and the monocytes isolated via Ficoll-paque density centrifugation. […] The cells were allowed to pre-incubate with test compound at the indicated concentration for 30 minutes (37° C., 5% CO2, humidified air); after which the supernatant was removed and media containing compound and 1 ng/mL LPS was added. Cells were allowed to incubate with compounds and LPS for 4 hours at 37° C. after which the supernatant was removed and stored at −80° C. Cytokine concentrations in the supernatant were determined using commercially available Bio-Rad Bio-plex™ kits according the manufacturer's instructions.

[5] = rat, oral, 20-30 μmol/kg, plasma, mean of n = 3
[6] = relaxation of 1 μM carbachol precontracted rat tracheal rings

| Structure (SMILES) | Percentage of carbachol-induced contraction at 1 μM compound, Avg % [1] [%] | Percentage of carbachol-induced contraction at 10 μM compound, Avg % [1] [%] | Trachael Ring Contraction, % [1] [%] | further results |
| --- | --- | --- | --- | --- |
| OCCOc1cccc(CN2CCC[C@@H](Nc3ccc4[nH]ncc4c3)C2)c1 [Compound 1.092, (R)-2-(3-((3-(1H-indazol-5-ylamino)piperidin-1-yl)methyl)phenoxy)ethanol] | 67.7 | −2.9 | – | pIC50 ([1]; Rattus norvegicus): 6.34; Vz_F [2, 5]: 19.0 L/kg |
| CCc1ccc(CN2CCC[C@@H](Nc3ccc4[nH]ncc4c3)C2)cc1 [Compound 1.136, (R)-N-(1-(4-ethylbenzyl)piperidin-3-yl)-1H-indazol-5-amine] | 45.0 | 19.7 | 45 | pIC50 ([1]; Rattus norvegicus): 6.06; log10AUC (penh) ([3]; 15 μmol/kg intraperitoneal): 2.1379; log10AUC (penh) ([3]; 15 μmol/kg oral): 2.2490; reduction in airway hyperresponsiveness ([3]; i.p. route, compared to oral dosing): enhanced reduction; reduction in airway hyperresponsiveness ([3]; oral doses): did not yield a significant reduction; oral bioavailability ([2]; oral dosing): poor oral bioavailability; AUC (0-last) [2, 5]: BLQ; Cmax [2, 5]: BLQ; Tmax [2, 5]: BLQ; Vz_F [2, 5]: BLQ; t½ [2, 5]: BLQ |
| Cc1ccc(CN2CCC[C@H](Nc3ccc4[nH]ncc4c3)C2)cc1OCCO [Compound 1.152, (S)-2-(5-((3-(1H-indazol-5-ylamino)piperidin-1-yl)methyl)-2-methylphenoxy)ethanol] | 34.4 | – | 34 | – |
| C#Cc1cccc(CN2CCC[C@H](Nc3ccc4[nH]ncc4c3)C2)c1 [Compound 1.153, (S)-N-(1-(3-ethynylbenzyl)piperidin-3-yl)-1H-indazol-5-amine] | 40.9 | – | 41 | – |
| Oc1cccc(CN2CCC[C@H](Nc3ccc4[nH]ncc4c3)C2)c1 [Compound 1.163, (S)-3-((3-(1H-indazol-5-ylamino)piperidin-1-yl)methyl)phenol] | 35.4 | – | 35 | – |
| Cc1ccc(CN2CCC[C@@H](Nc3ccc4[nH]ncc4c3)C2)cc1O [Compound 1.173, (R)-5-((3-(1H-indazol-5-ylamino)piperidin-1-yl)methyl)-2-methylphenol] | 32.8 | – | 33 | – |
| NCc1cccc(CN2CCC[C@H](Nc3ccc4[nH]ncc4c3)C2)c1 [Compound 1.184, (S)-N-(1-(3-(aminomethyl)benzyl)piperidin-3-yl)-1H-indazol-5-amine] | 88.6 | – | – | – |
| O=C(O)COc1cccc(CN2CCC[C@H](Nc3ccc4[nH]ncc4c3)C2)c1 [Compound 1.196, (S)-2-(3-((3-(1H-indazol-5-ylamino)piperidin-1-yl)methyl)phenoxy)acetic acid] | 96.2 | – | – | – |
| CC(=O)NCc1cccc(CN2CCC[C@H](Nc3ccc4[nH]ncc4c3)C2)c1 [Compound 1.197] | 41.7 | – | 42 | – |
| CCOC(=O)COc1cccc(CN2CCC[C@H](Nc3ccc4[nH]ncc4c3)C2)c1 [Compound 1.200, (S)-ethyl 2-(3-((3-(1H-indazol-5-ylamino)piperidin-1-yl)methyl)phenoxy)acetate] | 91.5 | – | 92 | – |
| CS(=O)(=O)Nc1cc(CN2CCC[C@@H](Nc3ccc4[nH]ncc4c3)C2)ccc1Cl [Compound 1.212, (R)-N-(5-((3-(1H-indazol-5-ylamino)piperidin-1-yl)methyl)-2-chlorophenyl)methanesulfonamide] | 40.1 | – | 40 | – |
| CS(=O)(=O)Nc1cc(CN2CCC[C@H](Nc3ccc4[nH]ncc4c3)C2)ccc1Cl [Compound 1.213, (S)-N-(5-((3-(1H-indazol-5-ylamino)piperidin-1-yl)methyl)-2-chlorophenyl)methanesulfonamide] | 29.3 | – | 29 | – |
| NS(=O)(=O)c1cccc(CN2CCC[C@H](Nc3ccc4[nH]ncc4c3)C2)c1 [Compound 1.215, (S)-3-((3-(1H-indazol-5-ylamino)piperidin-1-yl)methyl)benzenesulfonamide] | 40.6 | – | 41 | log10AUC (penh) ([3]; 15 μmol/kg intraperitoneal): 2.0081 |
| NCc1cccc(CN2CCC[C@@H](Nc3ccc4[nH]ncc4c3)C2)c1 [Compound 1.235, (R)-N-(1-(3-(aminomethyl)benzyl)piperidin-3-yl)-1H-indazol-5-amine] | – | – | – | log10AUC (penh) ([3]; 15 μmol/kg intraperitoneal): 1.9362 |
| Cc1ccc(CN2CC[C@@H](Nc3cccc4cnccc34)C2)cc1 [Compound 2.025, (R)-N-(1-(4-methylbenzyl)pyrrolidin-3-yl)isoquinolin-5-amine] | 33.3 | – | 33 | log10AUC (penh) ([3]; 15 μmol/kg intraperitoneal): 1.9667 |
| CS(=O)(=O)Nc1cccc(CN2CCC[C@H](Nc3cccc4cnccc34)C2)c1 [Compound 2.037, (S)-N-(3-((3-(isoquinolin-5-ylamino)piperidin-1-yl)methyl)phenyl)methanesulfonamide] | – | 21.3 | – | pIC50 ([1]; Rattus norvegicus): 5.67 |
| CCS(=O)(=O)Nc1cccc(CN2CC[C@@H](Nc3cccc4cnccc34)C2)c1 [Compound 2.041, (R)-N-(3-((3-(isoquinolin-5-ylamino)pyrrolidin-1-yl)methyl)phenyl)ethanesulfonamide] | – | −5.4 | – | pIC50 ([1]; Rattus norvegicus): 6.79 |
| Cc1ccc(CN2CCC[C@H](Nc3cccc4cnccc34)C2)cc1 [Compound 2.045, (S)-N-(1-(4-methylbenzyl)piperidin-3-yl)isoquinolin-5-amine] | – | 13.6 | – | pIC50 ([1]; Rattus norvegicus): 5.56 |
| Cc1ccc(CN2CC[C@@H](Nc3cccc4cnccc34)C2)cc1OCCO [Compound 2.064, (R)-2-(5-((3-(isoquinolin-5-ylamino)pyrrolidin-1-yl)methyl)-2-methylphenoxy)ethanol] | – | – | – | IL-1β % ([4]; 4 h, 10 µM): 14.3%; IL-6, % ([4]; 4 h, 10 µM): 45.7%; TNF-α % ([4]; 4 h, 10 µM): 66.2%; IL-1β % ([4]; average percent of stimulated IL-1β secretion from human monocytes at 10 μM of test compound): 14.3%; IL-6, % ([4]; average percent of stimulated IL-6 secretion from human monocytes at 10 μM of test compound): 45.7%; TNF-α % ([4]; average percent of stimulated TNF-α secretion from human monocytes at 10 μM of test compound): 66.2% |
| Cc1cncc2cccc(S(=O)(=O)N3CCCNC[C@@H]3C)c12 [Compound H-1152, reference compound] | – | −6.5 | – | – |
| C[C@@H](N)[C@H]1CC[C@H](C(=O)Nc2ccncc2)CC1 [Compound Y-27632, reference compound] | 83.7 | 23.4 | – | pIC50 [1, 6]: 5.32; log10AUC (penh) ([3]; 30 μmol/kg oral): 2.0135 |
| C[C@@H](N)c1ccc(C(=O)Nc2ccnc3[nH]ccc23)cc1 [Compound Y-39983, reference compound] | 26.5 | −6.0 | – | pIC50 [1, 6]: 6.72 |
| O=S(=O)(c1cccc2cnccc12)N1CCCNCC1 [Fasudil, reference compound] | – | – | – | Percentage of carbachol-induced contraction at 10 μM compound, Avg % ([1]; listed as fasudil): 43.0%; IC50 Avg [1, 6]: could not be obtained |
